Measurements as given in patent publication US20100298141A1, “SUBSTITUTED PYRIDINE N-OXIDE HERBICIDES” (E. I. DU PONT DE NEMOURS AND COMPANY, priority 2007, published 2010).

Columns and labels:
giant foxtail [1] = experiment: Test A pre-/postemergence greenhouse test; format: in vivo, Setaria faberi; details: for Foxtail, Giant plant response rating: 0 to 100 scale; for Plant response rating, Foxtail, Giant: 0 to 100 scale where 0 is no effect and 100 is complete control
How it was run: (§1)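 Untreated controls served as the reference for visual injury ratings taken about ten days after spraying. The non-phytotoxic solvent/surfactant formulation was applied preemergence to seeded loam and sand and postemergence to plants two to ten cm high.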

redroot pigweed = experiment: Test A pre-/postemergence greenhouse test; format: in vivo, Amaranthus retroflexus; details: for Pigweed plant response rating: 0 to 100 scale; for Plant response rating, Pigweed: 0 to 100 scale where 0 is no effect and 100 is complete control
How it was run: as §1

velvetleaf [2] = experiment: Test A pre-/postemergence greenhouse test; format: in vivo, Abutilon theophrasti; details: for Velvetleaf plant response rating: 0 to 100 scale; for Plant response rating, Velvetleaf: 0 to 100 scale where 0 is no effect and 100 is complete control
How it was run: as §1

wheat = experiment: Test A pre-/postemergence greenhouse test; format: in vivo, Triticum aestivum; details: for Wheat plant response rating: 0 to 100 scale; for Plant response rating, Wheat: 0 to 100 scale where 0 is no effect and 100 is complete control
How it was run: as §1

corn = experiment: Test A pre-/postemergence greenhouse test; format: in vivo, Zea mays; details: for Corn plant response rating: 0 to 100 scale; for Plant response rating, Corn: 0 to 100 scale where 0 is no effect and 100 is complete control
How it was run: as §1

wild oat = experiment: Test C pre-/postemergence test; format: in vivo, Avena fatua; details: Preemergence; for Oat, Wild plant response rating: 62 g ai/ha, scale 0 to 100; for Plant response rating, Oat, Wild: 31 g ai/ha, scale 0 to 100 (0 no effect, 100 complete control)
How it was run: (§2)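 Compounds in a non-phytotoxic solvent with surfactant applied preemergence to seeded pots and, at the same time, postemergence to plants 2–18 cm tall (1- to 4-leaf stage). Paddy tests: pots flooded to 3 cm, compound applied into the water, depth held throughout.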

bermudagrass = experiment: Test C pre-/postemergence test; format: in vivo, Cynodon dactylon; details: for Plant response rating, Bermudagrass: 31 g ai/ha; for Plant response rating (0 to 100), Bermudagrass: 250 g ai/ha
How it was run: as §2

Surinam grass = experiment: Test C pre-/postemergence test; format: in vivo, Brachiaria decumbens; details: Preemergence; for Surinam Grass plant response rating: 62 g ai/ha, scale 0 to 100; for Plant response rating, Surinam Grass: 31 g ai/ha, scale 0 to 100 (0 no effect, 100 complete control)
How it was run: as §2

giant foxtail [3] = experiment: Test C pre-/postemergence test; format: in vivo, Setaria faberii; details: Preemergence; for Foxtail, Giant plant response rating: 62 g ai/ha, scale 0 to 100; for Plant response rating, Foxtail, Giant: 31 g ai/ha, scale 0 to 100 (0 no effect, 100 complete control); for Plant response rating (0 to 100), Foxtail, Giant: 250 g ai/ha
How it was run: as §2

Goosegrass = experiment: Test C pre-/postemergence test; format: in vivo, Eleusin indica; details: Preemergence; for Goosegrass plant response rating: 62 g ai/ha, scale 0 to 100; for Plant response rating, Goosegrass: 31 g ai/ha, scale 0 to 100 (0 no effect, 100 complete control); for Plant response rating (0 to 100), Goosegrass: 250 g ai/ha
How it was run: as §2

johnsongrass = experiment: Test C pre-/postemergence test; format: in vivo, Sorghum halepense; details: Preemergence; for Johnsongrass plant response rating: 62 g ai/ha, scale 0 to 100; for Plant response rating, Johnsongrass: 31 g ai/ha, scale 0 to 100 (0 no effect, 100 complete control); for Plant response rating (0 to 100), Johnsongrass: 250 g ai/ha
How it was run: as §2

lambsquarters = experiment: Test C pre-/postemergence test; format: in vivo, Chenopodium album; details: Preemergence; for Lambsquarters plant response rating: 62 g ai/ha, scale 0 to 100; for Plant response rating, Lambsquarters: 31 g ai/ha, scale 0 to 100 (0 no effect, 100 complete control)
How it was run: as §2

eastern black nightshade = experiment: Test C pre-/postemergence test; format: in vivo, Solanum ptycanthum; details: Preemergence; for Nightshade plant response rating: 62 g ai/ha, scale 0 to 100; for Plant response rating, Nightshade: 31 g ai/ha, scale 0 to 100 (0 no effect, 100 complete control)
How it was run: as §2

common ragweed = experiment: Test C pre-/postemergence test; format: in vivo, Ambrosia elation; details: Preemergence; for Ragweed plant response rating: 62 g ai/ha, scale 0 to 100
How it was run: as §2

velvetleaf [4] = experiment: Test C pre-/postemergence test; format: in vivo, Abutilon theophrasti; details: Preemergence; for Velvetleaf plant response rating: 62 g ai/ha, scale 0 to 100; for Plant response rating, Velvetleaf: 31 g ai/ha, scale 0 to 100 (0 no effect, 100 complete control)
How it was run: as §2

rice = experiment: Test C flooded paddy test; format: in vivo, Oryza sativa; details: Flood
How it was run: (§3)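 Ratings were visual and made relative to untreated controls after 13 to 15 greenhouse days.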

duck salad = experiment: Test C flooded paddy test; format: in vivo, Heteranthera limosa; details: Flood
How it was run: as §3

barnyardgrass = experiment: Test C flooded paddy test; format: in vivo, Echinochloa crus-galli; details: Flood
How it was run: as §3

[5] = Postemergence, 125 g ai/ha, 0 is no effect, 100 is complete control
[6] = Postemergence, 500 g ai/ha, 0 is no effect, 100 is complete control
[7] = Preemergence, 125 g ai/ha, 0 no effect, 100 complete control
[8] = 62 g ai/ha, Preemergence, scale 0 to 100 (0 no effect, 100 complete control)
[9] = Preemergence, scale 0 to 100 (0 no effect, 100 complete control)
[10] = preemergence, 125 g ai/ha, scale 0 (no effect) to 100 (complete control)
[11] = 31 g ai/ha, scale 0 to 100 (0 no effect, 100 complete control)
[12] = 62 g ai/ha, scale 0 to 100, 0 no effect, 100 complete control, 13 to 15 days
[13] = 125 g ai/ha, scale 0 to 100, 0 no effect, 100 complete control, 13 to 15 days
[14] = 250 g ai/ha, scale 0 to 100, 0 no effect, 100 complete control, 13 to 15 days
[15] = 250 g ai/ha, scale 0 to 100 (0 no effect, 100 complete control)

CC(c1c(C(F)(F)F)nn(C)c1OCC(F)(F)F)S(=O)(=O)c1cccc[n+]1[O-] (racemic) [Compound 33]
Foxtail, Giant plant response rating (giant foxtail [1]; [5]): 90 | Foxtail, Giant plant response rating (giant foxtail [1]; [6]): 90 | Foxtail, Giant plant response rating (giant foxtail [1]; [7]): 100 | Plant response rating, Foxtail, Giant (giant foxtail [1]; Preemergence, 500 g ai/ha): 100 | Pigweed plant response rating (redroot pigweed; [5]): 60 | Pigweed plant response rating (redroot pigweed; [6]): 90 | Pigweed plant response rating (redroot pigweed; [7]): 100 | Plant response rating, Pigweed (redroot pigweed; Preemergence, 500 g ai/ha): 100 | Velvetleaf plant response rating (velvetleaf [2]; [5]): 40 | Velvetleaf plant response rating (velvetleaf [2]; [6]): 60 | Velvetleaf plant response rating (velvetleaf [2]; [7]): 70 | Plant response rating, Velvetleaf (velvetleaf [2]; Preemergence, 500 g ai/ha): 100 | Wheat plant response rating (wheat; [5]): 60 | Wheat plant response rating (wheat; [6]): 70 | Wheat plant response rating (wheat; [7]): 60 | Plant response rating, Wheat (wheat; Preemergence, 500 g ai/ha): 100 | Corn plant response rating (corn; [5]): 50 | Corn plant response rating (corn; [6]): 70 | Corn plant response rating (corn; [7]): 70 | Plant response rating, Corn (corn; Preemergence, 500 g ai/ha): 80 | Oat, Wild plant response rating (wild oat): 65 | Plant response rating, Oat, Wild (wild oat): 50 | Bermudagrass plant response rating (bermudagrass; [8]): 100 | Plant response rating, Bermudagrass (bermudagrass; [9]): 100 | Plant response rating (0 to 100), Bermudagrass (bermudagrass; Preemergence): 100 | Bermudagrass plant response rating (bermudagrass; [10]): 100 | Surinam Grass plant response rating (Surinam grass): 100 | Plant response rating, Surinam Grass (Surinam grass): 80 | Foxtail, Giant plant response rating (giant foxtail [3]): 100 | Plant response rating, Foxtail, Giant (giant foxtail [3]): 98 | Plant response rating (0 to 100), Foxtail, Giant (giant foxtail [3]): 100 | Goosegrass plant response rating (Goosegrass): 100 | Plant response rating, Goosegrass (Goosegrass): 100 | Plant response rating (0 to 100), Goosegrass (Goosegrass): 100 | Johnsongrass plant response rating (johnsongrass): 100 | Plant response rating, Johnsongrass (johnsongrass): 98 | Plant response rating (0 to 100), Johnsongrass (johnsongrass): 100 | Lambsquarters plant response rating (lambsquarters): 100 | Plant response rating, Lambsquarters (lambsquarters): 90 | Nightshade plant response rating (eastern black nightshade): 85 | Plant response rating, Nightshade (eastern black nightshade): 70 | Ragweed plant response rating (common ragweed): 10 | Velvetleaf plant response rating (velvetleaf [4]): 100 | Plant response rating, Velvetleaf (velvetleaf [4]): 100 | Plant response rating, Rice (rice; [11]): 0 | Plant response rating, Rice (rice; [12]): 0 | Plant response rating, Rice (rice; [13]): 30 | Plant response rating, Rice (rice; [14]): 75 | Plant response rating, Ducksalad (duck salad; [11]): 0 | Plant response rating, Ducksalad (duck salad; [12]): 0 | Plant response rating, Ducksalad (duck salad; [13]): 45 | Plant response rating, Ducksalad (duck salad; [14]): 95 | Plant response rating, Barnyardgrass (barnyardgrass; [11]): 30 | Plant response rating, Barnyardgrass (barnyardgrass; [12]): 30 | Plant response rating, Barnyardgrass (barnyardgrass; [13]): 30 | Plant response rating, Barnyardgrass (barnyardgrass; [14]): 80

Cn1nc(C(F)(F)F)c(C[S+]([O-])c2ccc(Cl)c[n+]2[O-])c1Cl (racemic) [Compound 17]
Foxtail, Giant plant response rating (giant foxtail [1]; [5]): 80 | Foxtail, Giant plant response rating (giant foxtail [1]; [6]): 90 | Foxtail, Giant plant response rating (giant foxtail [1]; [7]): 100 | Plant response rating, Foxtail, Giant (giant foxtail [1]; Preemergence, 500 g ai/ha): 100 | Pigweed plant response rating (redroot pigweed; [5]): 40 | Pigweed plant response rating (redroot pigweed; [6]): 80 | Pigweed plant response rating (redroot pigweed; [7]): 100 | Plant response rating, Pigweed (redroot pigweed; Preemergence, 500 g ai/ha): 100 | Velvetleaf plant response rating (velvetleaf [2]; [5]): 50 | Velvetleaf plant response rating (velvetleaf [2]; [6]): 80 | Velvetleaf plant response rating (velvetleaf [2]; [7]): 60 | Plant response rating, Velvetleaf (velvetleaf [2]; Preemergence, 500 g ai/ha): 100 | Wheat plant response rating (wheat; [5]): 50 | Wheat plant response rating (wheat; [6]): 60 | Wheat plant response rating (wheat; [7]): 50 | Plant response rating, Wheat (wheat; Preemergence, 500 g ai/ha): 80 | Corn plant response rating (corn; [5]): 50 | Corn plant response rating (corn; [6]): 60 | Corn plant response rating (corn; [7]): 0 | Plant response rating, Corn (corn; Preemergence, 500 g ai/ha): 80 | Oat, Wild plant response rating (wild oat): 40 | Plant response rating, Oat, Wild (wild oat): 0 | Bermudagrass plant response rating (bermudagrass; [8]): 100 | Plant response rating, Bermudagrass (bermudagrass; [9]): 80 | Plant response rating (0 to 100), Bermudagrass (bermudagrass; Preemergence): 100 | Bermudagrass plant response rating (bermudagrass; [10]): 100 | Surinam Grass plant response rating (Surinam grass): 95 | Plant response rating, Surinam Grass (Surinam grass): 0 | Foxtail, Giant plant response rating (giant foxtail [3]): 100 | Plant response rating, Foxtail, Giant (giant foxtail [3]): 95 | Plant response rating (0 to 100), Foxtail, Giant (giant foxtail [3]): 100 | Goosegrass plant response rating (Goosegrass): 100 | Plant response rating, Goosegrass (Goosegrass): 100 | Plant response rating (0 to 100), Goosegrass (Goosegrass): 100 | Johnsongrass plant response rating (johnsongrass): 100 | Plant response rating, Johnsongrass (johnsongrass): 98 | Plant response rating (0 to 100), Johnsongrass (johnsongrass): 100 | Lambsquarters plant response rating (lambsquarters): 100 | Plant response rating, Lambsquarters (lambsquarters): 100 | Nightshade plant response rating (eastern black nightshade): 100 | Plant response rating, Nightshade (eastern black nightshade): 98 | Ragweed plant response rating (common ragweed): 75 | Plant response rating, Ragweed (common ragweed; [11]): 10 | Velvetleaf plant response rating (velvetleaf [4]): 80 | Plant response rating, Velvetleaf (velvetleaf [4]): 0 | Plant response rating, Rice (rice; [11]): 0 | Plant response rating, Rice (rice; [12]): 70 | Plant response rating, Rice (rice; [13]): 75 | Plant response rating, Rice (rice; [15]): 80 | Plant response rating, Ducksalad (duck salad; [11]): 60 | Plant response rating, Ducksalad (duck salad; [12]): 80 | Plant response rating, Ducksalad (duck salad; [13]): 85 | Plant response rating, Ducksalad (duck salad; [15]): 95 | Plant response rating, Barnyardgrass (barnyardgrass; [11]): 20 | Plant response rating, Barnyardgrass (barnyardgrass; [12]): 65 | Plant response rating, Barnyardgrass (barnyardgrass; [13]): 85 | Plant response rating, Barnyardgrass (barnyardgrass; [15]): 85
